Experimental findings from US8080423B2, “Reagent containing protease reaction promoter and/or colorant stabilizer” (Asahi Kasei Pharma Corporation, priority 2004, dated 2011) are described below.

Data set [1] relates to Neutral protease (manufactured by Toyobo Co., Ltd.). The experiment in a line: Screening of protease reaction promoter (Example 1). The data set is classed as biochemical. The conditions noted are these: for protease reaction promoting effect (in words): judged from Table 1; for AH − AL / AH (absorbance from primary calibrator at level 4 (9.88%)) / AL (absorbance from primary calibrator at level 2 (5.38%)): 660 nm. The method, then:
1) R-1: Reagent for Protein Decomposition
2) R-2: Reagent for Glycated Amino Acid Detection
The following substances were independently used as a test sample. Note that concentrations described in parentheses each represent a final concentration of the substance in the reagent R1.
Absorbance before the addition of the reagent R-2 and 5 minutes after the addition was measured at 660 nm. […] The AH-AL shown in Table 1 is a difference obtained by subtracting absorbance AL which was obtained from the primary calibrator at level 2 (5.38%) from absorbance AH which was obtained from the primary calibrator at level 4 (9.88%). Here, if AH-AL is large, the sample is judged to have a protease reaction promoting effect. In particular, when AH-AL is 20 or more, the sample has an excellent promoting effect.

Another data set has as its target hemoglobin (Homo sapiens, UniProt P68871+P69905). The experiment in a line: Measurement of hemoglobin and stability of reagent (Example 9). The data set is classed as physicochemical. The conditions noted are these: Example 2 reagent with 1% promoter; 660 nm; FIG. 1. The method, then: By using the reagents of Example 2, measurement was performed for a standard product having a known hemoglobin concentration.
Measurement was performed by using an autoanalyzer (Hitachi autoanalyzer 7170S; manufactured by Hitachi Ltd.). 20 μl of a sample was added with 180 μl of each of the reagents, and changes in absorbance were measured at 660 nm. Water was used as a control, and differences in absorbance between the sample and the water were calculated after 5 minutes. 5-serially diluted products of the standard hemoglobin product were used as the sample.
In addition, a preservation test was performed for a reagent in which sarcosinate MN was used as a protease reaction promoter at 37° C. for 4 days. The measurement of 5.5 g/dl of the standard hemoglobin product was performed by using, as a calibrator, a 30-fold diluted product of a standard substance for HbA1c measurement (primary calibrator JDS HbA1c Lot2, manufactured by Health Care Technology Foundation, level 1, hemoglobin concentration of 135 g/L). As a result, the measurement values of the hemoglobin were 54 mAbs, 4.5 g/L before the preservation test and 50 mAbs, 4.6 g/L after the preservation test. From the results, it was assumed that the present reagent is stable for 6 months or longer under refrigeration.

The next data set has as its target T1, protease (Bacillus licheniformis, UniProt P00780).
T1 construct: purchased Sigma Aldrich Japan K.K
The data set is described as follows: Effect of protease reaction promoter on glycated albumin measurement (Example 12). The class given is biochemical. The method, then: The reagents of Example 5 were used. 240 μl of the reagent R-1 which had been incubated to 37° C. was added with 8 μl of a control plasma H (manufactured by BML Inc.); […], and absorbance thereof was measured using a dominant wavelength of 546 nm and a subwavelength of 700 nm. A reaction was initiated at 37° C., and 80 μl of the R-2 reagent was added to the mixture exactly 5 minutes after the initiation. Absorbance before the addition of the R-2 reagent and after 5 minutes of the addition was measured. In addition, measurement was performed for a blank which was prepared by using distilled water instead of the substrate solution. The change in absorbance obtained from the control substrate solution was subtracted by the change in absorbance obtained from the blank sample, to thereby calculate ΔA0. Conversion of the values was performed by simultaneous measurement for a calibrator (manufactured by Asahi Kasei Pharma Corporation) for Lucica GA and comparison of absorbance. The measurement value for albumin was obtained from a difference in absorbance which was obtained by subtracting absorbance immediately before the addition of the R-2 reagent from absorbance immediately after the addition of the sample. […]

A short description of data set [2]: Screening of stabilizer for colorant, MBTH-TOOS (Example 13). The class given is physicochemical. The conditions noted are these: MBTH-TOOS, 570 nm, 37° C., additives at conc. (1%; IDA 1 mM; Zn, Al 0.1 mM; ferrocyanide 0.01 mM; sorbitol 5%; DMSO 10%).
Data set [3] is described as follows: Screening of stabilizer for colorant, DA67 (Example 13). The class given is physicochemical. The conditions noted are these: DA-67, 660 nm, 37° C., additives at conc. (1%; IDA 1 mM; Zn, Al 0.1 mM; ferrocyanide 0.01 mM; sorbitol 5%; DMSO 10%). The method, then:
(§1) The following substances were used as test samples. Note that concentrations described in parentheses each represent a final concentration of the substance in the reagent R-1.
(§2) Tween-20 (1%), Brij35 (1%), Triton X-100 (1%), deoxycholic acid (1%), imino-diacetic acid (IDA; 1 mM), ZnSO4 (0.1 mM), AlCl3 (0.1 mM), potassium ferrocyanate (0.01 mM), sorbitol (5%), glucose (5%), sodium nitrite (2 mM), dimethylsulfoxide (DMSO; 10%) (those substances are manufactured by Wako Pure Chemical Industries, Inc.), 2-hydroxypropyl-β-cyclodextrin (2HP β CD; 0.5%, 2%, 5%) and methyl-β-cyclodextrin (M β CD; 0.5%, 2%, 5%) (those substances are manufactured by Nihon Shokuhin Kako Co., Ltd.).
(§3) 500 μl of the R-1 reagent and 500 μl of the R-2 which had been incubated to 37° C. were mixed. The mixture was incubated to 37° C. for 2 minutes, and absorbance thereof (A0) was measured. The mixture was added with 10 μl of 500 μM hydrogen peroxide or distilled water. The whole was incubated to 37° C., and absorbance exactly 5 minutes after the addition of hydrogen peroxide (A1) was measured, to calculate a change in absorbance ΔA (A1-A0). The absorbance was measured using a wavelength of 750 nm when DA64 was used as the colorant, a wavelength of 660 nm when DA67 was used as the colorant, and a wavelength of 570 nm when 4-AA-TOOS was used as the colorant.
(§4) Immediately after the preparation of the reagent, the reagent was preserved at 37° C. for 2 days and 9 days, and measurement of sensitivity of a blank which was distilled water and of hydrogen peroxide was performed.

Data set [4] can be described thus: Screening of stabilizer for colorant, DA64 (Example 13). The class given is physicochemical. Particulars: DA-64, 750 nm, 37° C., additives at conc. (1%; IDA 1 mM; Zn, Al 0.1 mM; ferrocyanide 0.01 mM; sorbitol 5%; DMSO 10%). The protocol: as §1, §2, §3, §4
The nature of data set [5]: Effect of catalase addition on reagent containing cyclodextrin and colorant (Example 14). The data set is classed as physicochemical. Particulars: for 500 μM hydrogen peroxide / Blank: DA-67, 2% 2-hydroxypropyl-β-cyclodextrin, 500 U/ml catalase, 37° C. The protocol: as §3
The same operation method as in Example 13 was used. Immediately after the preparation of the reagent, the reagent was preserved at 37° C. for 2 days and 9 days, and measurement of sensitivity of a blank which was distilled water and of hydrogen peroxide was performed.

Where [6] appears, read: test sample 1% in R-1, 20 or more = excellent promoting effect.

hemoglobin, sequence (P69905 2-142 limits assumed): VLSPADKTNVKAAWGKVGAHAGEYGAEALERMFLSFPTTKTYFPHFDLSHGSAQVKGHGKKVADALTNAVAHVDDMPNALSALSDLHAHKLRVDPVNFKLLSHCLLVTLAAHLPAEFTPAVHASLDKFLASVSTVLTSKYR
hemoglobin, sequence (P68871 2-147 limits assumed): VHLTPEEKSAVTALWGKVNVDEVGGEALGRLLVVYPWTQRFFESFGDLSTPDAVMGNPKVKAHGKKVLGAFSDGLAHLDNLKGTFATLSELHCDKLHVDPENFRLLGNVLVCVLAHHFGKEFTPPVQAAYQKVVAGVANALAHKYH
T1 sequence (P00780 106-379): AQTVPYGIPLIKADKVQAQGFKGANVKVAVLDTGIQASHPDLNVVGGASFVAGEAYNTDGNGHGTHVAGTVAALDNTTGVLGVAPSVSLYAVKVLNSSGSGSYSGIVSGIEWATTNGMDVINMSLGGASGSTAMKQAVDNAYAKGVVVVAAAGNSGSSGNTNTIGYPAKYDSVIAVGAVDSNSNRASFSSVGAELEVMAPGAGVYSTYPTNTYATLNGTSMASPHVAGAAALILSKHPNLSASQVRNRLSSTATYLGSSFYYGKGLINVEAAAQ

Turning to `CCCCCCCCCCCCOCCOCCOCCOCCOCCOCCOCCOCCOCCOCCOCC(=O)O` [AKYPO-RLM100, polyoxyethylene(10)lauryl ether acetic acid], the “protease reaction promoting effect (in words)” value in data set [1] is “effects were observed”. Further, in data set [1] (setting [6]), the “AH − AL” value was determined as 29.1 mAbs. Besides, on hemoglobin, the “quantification of hemoglobin (in words)” value is reported as “hemoglobin was able to be quantified”.

Consider `CCCCCCCCCCCC(=O)N(C)CCC(=O)[O-].[Na+]` [Alaninate LN-30, sodium lauroyl methyl alaninate], for which the “protease reaction promoting effect (in words)” value in data set [1] is recorded as “effects were observed”. Further, in data set [1] (test sample 1% in R-1), the “AH (absorbance from primary calibrator at level 4 (9.88%))” value was 92.3 and the “AL (absorbance from primary calibrator at level 2 (5.38%))” value is recorded as 65.6. In addition, in data set [1] (setting [6]), the “AH − AL” value is 26.7 mAbs. Also, at protease (control serum, no dilution, with protease reaction promoter (without: 32 mAbs)), the “sensitivity of the GA measurement” value amounted to 48 mAbs. Besides, on protease (with vs without protease reaction promoter), the “increase of reaction rate” value is 1.5 folds.

Regarding `O=C(O)CNCC(=O)O` [IDA, imino-diacetic acid, reference compound], the “AH (absorbance from primary calibrator at level 4 (9.88%))” value in data set [1] (test sample 1 mM in R-1) worked out at 67.7. Moreover, the “AH − AL” value in data set [1] (test sample 1 mM in R-1) is reported as 5.5 mAbs. The “AL (absorbance from primary calibrator at level 2 (5.38%))” value in data set [1] (test sample 1 mM in R-1) was 62.2. In addition, the “blank (distilled water) change in absorbance” value (from here on “blank (distilled water) change”) in data set [2] (0 days) is listed as 0.151 Abs; in data set [2] (2 days), 1.213 Abs; in data set [3] (0 days), 0.089 Abs; in data set [3] (2 days), 2.131 Abs; in data set [4] (0 days) it was −0.010 Abs; in data set [4] (2 days), 0.078 Abs. Further, the “blank (distilled water) change” value in data set [4] (9 days) is given as 0.210 Abs.

Turning to `CCCCCCCCCCCCCCCCCC(=O)N(C)CCS(=O)(=O)[O-].[Na+]` [SMT, sodium N-stearoyl methyl taurinate], the “protease reaction promoting effect (in words)” value in data set [1] is “effects were observed”. In data set [1] (test sample 1% in R-1), the “AH (absorbance from primary calibrator at level 4 (9.88%))” value was 110.2 and the “AL (absorbance from primary calibrator at level 2 (5.38%))” value came to 86.4. Also, the “AH − AL” value in data set [1] (setting [6]) is listed as 23.8 mAbs. Besides, the “quantification of hemoglobin (in words)” value at hemoglobin is “hemoglobin was able to be quantified”.

Take `OC[C@@H](O)[C@@H](O)[C@H](O)[C@@H](O)CO` [Sorbitol, sorbitol, reference compound]: in data set [1] (test sample 5% in R-1), the “AH (absorbance from primary calibrator at level 4 (9.88%))” value was 68.3. For the same compound, the “AH − AL” value in data set [1] (test sample 5% in R-1) came out at 6.5 mAbs. Moreover, in data set [1] (test sample 5% in R-1), the “AL (absorbance from primary calibrator at level 2 (5.38%))” value is 61.8. In addition, the “blank (distilled water) change” value is recorded as 0.151 Abs in data set [2] (0 days); 1.225 Abs in data set [2] (2 days); 0.093 Abs in data set [3] (0 days); 2.545 Abs in data set [3] (2 days); −0.010 Abs in data set [4] (0 days); 0.080 Abs in data set [4] (2 days). The “blank (distilled water) change” value in data set [4] (9 days) was 0.230 Abs.

With TritonX-100 [reference compound], the “AH (absorbance from primary calibrator at level 4 (9.88%))” value in data set [1] (test sample 1% in R-1) came to 44.9. In addition, the “AL (absorbance from primary calibrator at level 2 (5.38%))” value in data set [1] (test sample 1% in R-1) amounted to 39.7. Further, the “AH − AL” value in data set [1] (setting [6]) is reported as 5.2 mAbs. Besides, the “blank (distilled water) change” value in data set [2] (0 days) is 0.146 Abs; in data set [2] (2 days) it was 1.135 Abs; in data set [3] (0 days), 0.085 Abs; in data set [3] (2 days) it was 2.100 Abs; in data set [4] (0 days) it was −0.005 Abs; in data set [4] (2 days), 0.080 Abs. Besides, in data set [4] (9 days), the “blank (distilled water) change” value amounted to 0.221 Abs.

On to catalase, for which the “500 μM hydrogen peroxide” value is 0.510 in data set [5] (0 days), 0.335 in data set [5] (2 days) and 0.304 in data set [5] (9 days). The Blank in data set [5] (0 days) is 0.057; in data set [5] (2 days), 0.452; in data set [5] (9 days), 1.052. Besides, the “effect of catalase addition on blank after preservation (in words)” value in data set [5] (Table 4) was “the blank after preservation significantly decreased”.
